In PubChem BioAssay (NCI):
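1) Cells in 96-well plates. 2) Compound, 48 h, 5 concentrations. 3) Linear interpolation between surrounding doses. 4) Unreached endpoint = highest concentration. TGI: total growth inhibition.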

Experiments:
Assay in all cases: inhibition of tumour cell growth, NCI panel, 48 h
HCT-15 colon = system: HCT-15 colon
T-47D breast = system: T-47D breast
UO-31 renal = system: UO-31 renal
UACC-62 melanoma = system: UACC-62 melanoma
SN12C renal = system: SN12C renal
A498 renal = system: A498 renal
MALME-3M melanoma = system: MALME-3M melanoma
NCI-H23 lung = system: NCI-H23 lung
SK-MEL-28 melanoma = system: SK-MEL-28 melanoma
LOX IMVI melanoma = system: LOX IMVI melanoma
SNB-75 CNS = system: SNB-75 CNS
SK-MEL-5 melanoma = system: SK-MEL-5 melanoma
UACC-257 melanoma = system: UACC-257 melanoma
SNB-19 CNS = system: SNB-19 CNS
OVCAR-4 ovarian = system: OVCAR-4 ovarian
SF-539 CNS = system: SF-539 CNS
SF-268 CNS = system: SF-268 CNS
M14 melanoma = system: M14 melanoma
OVCAR-8 ovarian = system: OVCAR-8 ovarian
NCI-H226 lung = system: NCI-H226 lung
KM12 colon = system: KM12 colon
MDA-MB-435 = system: MDA-MB-435
NCI/ADR-RES ovarian = system: NCI/ADR-RES ovarian
RXF 393 renal = system: RXF 393 renal
BT-549 breast = system: BT-549 breast
COLO 205 colon = system: COLO 205 colon
HCT-116 colon = system: HCT-116 colon
OVCAR-5 ovarian = system: OVCAR-5 ovarian
CCRF-CEM leukemia = system: CCRF-CEM leukemia
SK-OV-3 ovarian = system: SK-OV-3 ovarian
NCI-H460 lung = system: NCI-H460 lung
DU-145 prostate = system: DU-145 prostate
HL-60(TB) leukemia = system: HL-60(TB) leukemia
U251 CNS = system: U251 CNS
PC-3 prostate = system: PC-3 prostate
786-0 renal = system: 786-0 renal
HOP-92 NSCLC = system: HOP-92 NSCLC
CAKI-1 renal = system: CAKI-1 renal
ACHN renal = system: ACHN renal
OVCAR-3 ovarian = system: OVCAR-3 ovarian
A549 NSCLC = system: A549 NSCLC
MCF7 breast = system: MCF7 breast
SF-295 CNS = system: SF-295 CNS
TK-10 renal = system: TK-10 renal
SW-620 colon = system: SW-620 colon
SR leukemia = system: SR leukemia
IGROV1 ovarian = system: IGROV1 ovarian
EKVX NSCLC = system: EKVX NSCLC
NCI-H522 lung = system: NCI-H522 lung
SK-MEL-2 melanoma = system: SK-MEL-2 melanoma
HS 578T breast = system: HS 578T breast
MDA-N = system: MDA-N
HT29 colon = system: HT29 colon
MDA-MB-231 breast = system: MDA-MB-231 breast
MOLT-4 leukemia = system: MOLT-4 leukemia
HOP-62 NSCLC = system: HOP-62 NSCLC
RPMI-8226 leukemia = system: RPMI-8226 leukemia
K-562 leukemia = system: K-562 leukemia
HCC-2998 colon = system: HCC-2998 colon

With COP(=O)(OC)[C@@](O)(c1ccccc1)[C@@H](O)[C@@H](O)c1ccccc1 the TGI (HCT-15 colon) was > 100 µM, the TGI (T-47D breast) was > 100 µM and the TGI (UO-31 renal) was > 100 µM. The TGI (UACC-62 melanoma) was > 100 µM, the TGI (SN12C renal) was > 100 µM and the TGI (A498 renal) was > 100 µM. For the same molecule, the TGI (MALME-3M melanoma) was > 100 µM, the TGI (NCI-H23 lung) was > 100 µM and the TGI (SK-MEL-28 melanoma) was > 100 µM. For the same molecule, the TGI (LOX IMVI melanoma) was 37.9 µM, the TGI (SNB-75 CNS) was > 100 µM and the TGI (SK-MEL-5 melanoma) was > 100 µM. For the same molecule, the TGI (UACC-257 melanoma) was > 100 µM, the TGI (SNB-19 CNS) was > 100 µM and the TGI (OVCAR-4 ovarian) was > 100 µM. For the same molecule, the TGI (SF-539 CNS) was > 100 µM, the TGI (SF-268 CNS) was > 100 µM and the TGI (M14 melanoma) was > 100 µM. For the same molecule, the TGI (OVCAR-8 ovarian) was > 100 µM, the TGI (NCI-H226 lung) was > 100 µM and the TGI (KM12 colon) was > 100 µM. For the same molecule, the TGI (MDA-MB-435) was > 100 µM, the TGI (NCI/ADR-RES ovarian) was > 100 µM and the TGI (RXF 393 renal) was > 100 µM. The TGI (BT-549 breast) was > 100 µM, the TGI (COLO 205 colon) was > 100 µM and the TGI (HCT-116 colon) was > 100 µM. For the same molecule, the TGI (OVCAR-5 ovarian) was > 100 µM, the TGI (CCRF-CEM leukemia) was 50.9 µM and the TGI (SK-OV-3 ovarian) was > 100 µM. The TGI (NCI-H460 lung) was > 100 µM, the TGI (DU-145 prostate) was > 100 µM and the TGI (HL-60(TB) leukemia) was > 100 µM. The TGI (U251 CNS) was > 100 µM, the TGI (PC-3 prostate) was > 100 µM and the TGI (786-0 renal) was > 100 µM. The TGI (HOP-92 NSCLC) was > 100 µM, the TGI (CAKI-1 renal) was > 100 µM and the TGI (ACHN renal) was > 100 µM. The TGI (OVCAR-3 ovarian) was > 100 µM, the TGI (A549 NSCLC) was > 100 µM and the TGI (MCF7 breast) was 83.8 µM. The TGI (SF-295 CNS) was > 100 µM, the TGI (TK-10 renal) was > 100 µM and the TGI (SW-620 colon) was > 100 µM. The TGI (SR leukemia) was 1.91 µM, the TGI (IGROV1 ovarian) was > 100 µM and the TGI (EKVX NSCLC) was > 100 µM. For the same molecule, the TGI (NCI-H522 lung) was > 100 µM, the TGI (SK-MEL-2 melanoma) was > 100 µM and the TGI (HS 578T breast) was > 100 µM. The TGI (MDA-N) was > 100 µM, the TGI (HT29 colon) was > 100 µM and the TGI (MDA-MB-231 breast) was > 100 µM.

With N#Cc1ccc(N=NN2CCCC2)cc1 the TGI (HCT-15 colon) was > 100 µM, the TGI (T-47D breast) was > 100 µM and the TGI (UO-31 renal) was > 100 µM. For the same molecule, the TGI (UACC-62 melanoma) was > 100 µM, the TGI (SN12C renal) was > 100 µM and the TGI (A498 renal) was > 100 µM. The TGI (MOLT-4 leukemia) was > 100 µM, the TGI (NCI-H23 lung) was > 100 µM and the TGI (LOX IMVI melanoma) was > 100 µM. The TGI (SNB-75 CNS) was > 100 µM, the TGI (SK-MEL-5 melanoma) was > 100 µM and the TGI (UACC-257 melanoma) was > 100 µM. The TGI (SNB-19 CNS) was > 100 µM, the TGI (OVCAR-4 ovarian) was > 100 µM and the TGI (SF-539 CNS) was > 100 µM. For the same molecule, the TGI (HOP-62 NSCLC) was > 100 µM, the TGI (SF-268 CNS) was > 100 µM and the TGI (M14 melanoma) was > 100 µM. For the same molecule, the TGI (OVCAR-8 ovarian) was > 100 µM, the TGI (NCI-H226 lung) was > 100 µM and the TGI (KM12 colon) was > 100 µM. For the same molecule, the TGI (RPMI-8226 leukemia) was > 100 µM, the TGI (MDA-MB-435) was > 100 µM and the TGI (NCI/ADR-RES ovarian) was > 100 µM. The TGI (RXF 393 renal) was > 100 µM, the TGI (BT-549 breast) was > 100 µM and the TGI (COLO 205 colon) was > 100 µM. The TGI (HCT-116 colon) was > 100 µM, the TGI (OVCAR-5 ovarian) was > 100 µM and the TGI (CCRF-CEM leukemia) was > 100 µM. The TGI (K-562 leukemia) was > 100 µM, the TGI (SK-OV-3 ovarian) was > 100 µM and the TGI (NCI-H460 lung) was > 100 µM. For the same molecule, the TGI (HCC-2998 colon) was > 100 µM, the TGI (DU-145 prostate) was > 100 µM and the TGI (HL-60(TB) leukemia) was > 100 µM. For the same molecule, the TGI (U251 CNS) was > 100 µM, the TGI (PC-3 prostate) was > 100 µM and the TGI (786-0 renal) was > 100 µM. The TGI (HOP-92 NSCLC) was > 100 µM, the TGI (CAKI-1 renal) was > 100 µM and the TGI (ACHN renal) was > 100 µM. The TGI (OVCAR-3 ovarian) was > 100 µM, the TGI (MCF7 breast) was > 100 µM and the TGI (SF-295 CNS) was > 100 µM. The TGI (TK-10 renal) was > 100 µM, the TGI (SW-620 colon) was > 100 µM and the TGI (SR leukemia) was > 100 µM. For the same molecule, the TGI (IGROV1 ovarian) was > 100 µM, the TGI (EKVX NSCLC) was > 100 µM and the TGI (NCI-H522 lung) was > 100 µM. The TGI (SK-MEL-2 melanoma) was > 100 µM, the TGI (HS 578T breast) was > 100 µM and the TGI (MDA-N) was > 100 µM. The TGI (MDA-MB-231 breast) was > 100 µM.
